This note sets out measurements from EP4775208A1, “USE OF PRMT5 INHIBITOR IN TREATMENT OF TUMORS OR CANCERS” (Apeiron Therapeutics (Hong Kong) Ltd., priority 2023, dated 2025).

Assay [1] deals with HCT-116 MTAP(-/-) deficient cells. In words: Inhibition of proliferation of HCT-116 MTAP(-/-) deficient cells (Cell-Titer Glo). Format: cell-based. Conditions: 8 days. The method, then: Test 1: Compound's inhibitory activity on proliferation of HCT-116 MTAP(-/-) deficient cells.
Materials and Cells: HCT-116 MTAP(-/-) deficient cells obtained from Kyinno Bio (China); RPMI-1640 medium, fetal bovine serum, and penicillin-streptomycin purchased from Thermo Fisher Scientific (America); 384-well plates from PerkinElmer (America); Cell-Titer Glo assay kit from Promega (America).
Cell Culture: HCT116 MTAP(-/-) deficient cells were cultured in RPMI 1640 medium containing 10% fetal bovine serum and 1% penicillin-streptomycin at 37°C, 5% CO2. Only cells in logarithmic growth phase were used for experiments.
Cell Proliferation Inhibition Assay: The compound's inhibitory activity on HCT-116 MTAP(-/-) deficient cells was assessed using the Cell-Titer Glo assay kit. Adjusting cell concentration, 40 µL was seeded into a 384-well plate and cultured overnight at 37°C, 5% CO2. Each well received 40 nL of the compound, achieving concentrations from 0 to 10,000 nM (starting concentration 10,000 nM, 3-fold dilution, 10 points), with 0.1% DMSO. The cell plate was incubated for 8 days at 37°C, 5% CO2. Cell-Titer Glo reagent (40 µL) was added to measure cell viability.

The subject of assay [2] is HCT-116 MTAP wild-type cells. In words: Inhibition of proliferation of HCT-116 MTAP wild-type cells (Cell-Titer Glo). Conditions: 8 days. The assay is classed as cell-based. On the procedure: Test 2: Compound's inhibitory activity on proliferation of HCT-116 MTAP wild-type cells.
Materials and Cells: HCT-116 MTAP wild-type cells obtained from Kyinno Bio (China); RPMI-1640 medium, fetal bovine serum, and penicillin-streptomycin purchased from Thermo Fisher Scientific (America); 384-well plates from PerkinElmer (America); Cell-Titer Glo assay kit from Promega (America).
Cell Culture: HCT116 MTAP wild-type cells were cultured in RPMI 1640 medium containing 10% fetal bovine serum and 1% penicillin-streptomycin at 37°C, 5% CO2. Only cells in logarithmic growth phase were used for experiments.
Cell Proliferation Inhibition Assay: The compound's inhibitory activity on HCT-116 MTAP wild-type cells was assessed using the Cell-Titer Glo assay kit. Adjusting cell concentration, 40 µL was seeded into a 384-well plate and cultured overnight at 37°C, 5% CO2. Each well received 40 nL of the compound, achieving concentrations from 0 to 10,000 nM (starting concentration 10,000 nM, 3-fold dilution, 10 points), with 0.1% DMSO. The cell plate was incubated for 8 days at 37°C, 5% CO2. Cell-Titer Glo reagent (40 µL) was added to measure cell viability.

Take `CN(C(=O)c1ccc2nc(N)c3cncn3c2c1)[C@@H]1CCc2cc(C(F)(F)F)ccc21` [Example 18, (R)-4-amino-N-methy 1-N-(5-(trifluoromethy 1)-2,3-dihydro-1H-inden-1-yl)imidazo[1,5-a]quinoxaline-8-carbox amide]: the IC50 (in general, the concentration at which inhibition is half-maximal) is 14.5 nM in assay [1] (Homo sapiens, HCT-116, 192 h) and 4330 nM in assay [2] (Homo sapiens, HCT-116, 192 h).

As for “(S)-4-amino-N-methy 1-N-(6-(trifluoromethy 1)-2,3-dihydrofuro[2,3 -b]pyridin-3-yl)imida zo[1,5-a]quinoxaline-8-carboxamide [Example 90]”, the IC50 in assay [1] was 36.4 nM; in assay [2], greater than 10000 nM.

For the compound `CN(C(=O)c1ccc2nc(N)c3cncn3c2c1)[C@@H]1COc2cc(C(F)(F)F)ncc21` [Example 26, (S)-4-amino-N-methy 1-N-(6-(trifluoromethy 1)-2,3-dihydrofuro[3,2-c]pyridin-3-yl)imidaz o[1,5-a]quinoxaline-8-carboxamide], the IC50 was 67.7 nM in assay [1] (Homo sapiens, HCT-116, 192 h) and greater than 10000 nM in assay [2] (Homo sapiens, HCT-116, 192 h).

On to “(S)-4-amino-N-(6-(cy clopropylsulfonyl)-2,3 -dihydrobenzo[b]thio phen-3-yl)-N-methyli midazo[1,5-a]quinoxa line-8-carboxamide [Example 133]”, for which the values for the IC50 in assay [1] and in assay [2] were 71.4 nM and greater than 10000 nM, respectively.

In the case of “(S)-4-amino-N-cyclop ropyl-N-(6-(trifluoro methyl)-2,3-dihydrob enzofuran-3-yl)imidaz o[1,5-a]pyrido[3,4-e]p yrazine-8-carboxamid e [Example 88]”, the figures for the IC50 in assay [1] and in assay [2] were 24.1 nM and 1850 nM, respectively.

As to `CN(C(=O)c1cc2c(cc1F)nc(N)c1cncn12)C1COC(C)(C)c2cc(C(F)(F)F)ccc21` (centres unmarked) [Example 13, 4-amino-N-(1,1-dimethyl-7-(trifluoromethyl)isochroman-4-yl)-7-f luoro-N-methylimidaz o[1,5-a]quinoxaline-8-carboxamide], the IC50 in assay [1] (Homo sapiens, HCT-116, 192 h) was found to be 15.7 nM; in assay [2] (Homo sapiens, HCT-116, 192 h), 2510 nM.

Turning to `Cc1ncn2c1c(N)nc1ccc(C(=O)N(C)[C@@H]3COc4cc(C(F)(F)F)ccc43)cc12` [Example 6, (S)-4-amino-N,3-dime thyl-N-(6-(trifluoromethyl)-2,3-dihydrobenzofuran-3-yl)imidazo[1 ,5-a]quinoxaline-8-car boxamide], the IC50 in assay [1] (Homo sapiens, HCT-116, 192 h) was 10.6 nM; in assay [2] (Homo sapiens, HCT-116, 192 h) it was 993 nM.

In the case of `Cc1cc(-c2ccc3c(c2)OCC[C@H]3N(C)C(=O)c2cc3c(cc2F)nc(N)c2cncn23)on1` [Example 116, (R)-4-amino-7-fluoro-N-methyl-N-(7-(3-methylisoxazol-5-yl)chroman-4-yl)imidazo[1,5-a]quinoxaline-8-carb oxamide], the half-maximal inhibitory concentration (IC50) in assay [1] (Homo sapiens, HCT-116, 192 h) was 109 nM; in assay [2] (Homo sapiens, HCT-116, 192 h), greater than 10000 nM.

For the compound `CC1OC[C@@H](N(C)C(=O)c2cc3c(cn2)nc(N)c2cncn23)c2ccc(C(F)(F)F)cc21` (stereo partly drawn) [Example 50, 4-amino-N-methyl-N-((4S)-1-methyl-7-(trifluoromethyl)isochroman-4-yl)imidazo[1,5-a]pyrido[3,4-e]pyrazine-8-carboxamide], the IC50 in assay [1] (Homo sapiens, HCT-116, 192 h) was determined as 4.2 nM; in assay [2] (Homo sapiens, HCT-116, 192 h), 196 nM.

Consider `CC1OC[C@@H](N(C)C(=O)c2ccc3nc(N)c4cncn4c3c2)c2ccc(C(F)(F)F)cc21` (stereo partly drawn) [Example 5, 4-amino-N-methyl-N-((4S)-1-methyl-7-(trifluoromethyl)isochroman-4-yl)imidazo[1,5-a]quinoxaline-8-carbox amide], for which the IC50 in assay [1] (Homo sapiens, HCT-116, 192 h) was found to be 4 nM; in assay [2] (Homo sapiens, HCT-116, 192 h), 280 nM.

Take `CN(C(=O)c1ccc2nc(N)c3cc(F)cn3c2c1)[C@@H]1COc2cc(Br)ccc21` [Example 11, (S)-4-amino-N-(6-bromo-2,3-dihydrobenzof uran-3-yl)-2-fluoro-N -methylpyrrolo[1,2-a] quinoxaline-8-carbox amide]: the 50% inhibitory concentration (IC50) is 1770 nM in assay [1] (Homo sapiens, HCT-116, 192 h) and 6410 nM in assay [2] (Homo sapiens, HCT-116, 192 h).

As for `CCOC(=O)c1ncn2c1c(N)nc1ccc(C(=O)N(C)C3COc4cc(C(F)(F)F)ccc43)cc12` (centres unmarked) [Example 109, ethyl 4-amino-8-(methyl(6-(trifluoromethyl)-2,3-dihydrobenzofuran-3-yl)carbamoyl)imidazo[1,5-a]quinoxaline-3-carboxylate], the IC50 in assay [1] (Homo sapiens, HCT-116, 192 h) was greater than 3000 nM; in assay [2] (Homo sapiens, HCT-116, 192 h) it was 9090 nM.

On to `CN(C(=O)c1ccc2nc(N)c3cncn3c2c1)[C@@H]1COc2cc(C#N)ccc21` [Example 10, (S)-4-amino-N-(6-cyano-2,3-dihydrobenzof uran-3-yl)-N-methyli midazo[1,5-a]quinoxa line-8-carboxamide], for which the IC50 in assay [1] (Homo sapiens, HCT-116, 192 h) worked out at 31.2 nM; in assay [2] (Homo sapiens, HCT-116, 192 h), 3110 nM.

For `CC1OC[C@@H](N(C)C(=O)c2ccc3nc(N)c4cncn4c3c2)c2cc(F)ccc21` (stereo partly drawn) [Example 77, 4-amino-N-((4S)-6-fluoro-1-methylisochroman-4-yl)-N-methylimidazo[1,5-a]quinoxaline-8-carboxamide], the half-inhibitory concentration (IC50) in assay [1] (Homo sapiens, HCT-116, 192 h) is 101 nM; in assay [2] (Homo sapiens, HCT-116, 192 h), 4260 nM.

Regarding `CC1OC[C@@H](N(C)C(=O)c2cc3c(cc2Cl)nc(N)c2cncn23)c2ccc(F)cc21` (stereo partly drawn) [Example 61, 4-amino-7-chloro-N-( (4S)-7-fluoro-1-methylisochroman-4-yl)-N-methylimidazo[1,5-a] quinoxaline-8-carbox amide], the IC50 in assay [1] (Homo sapiens, HCT-116, 192 h) is 7.7 nM; in assay [2] (Homo sapiens, HCT-116, 192 h), 882 nM.

As for `Cc1ncc(-c2ccc3c(c2)C(C)OC[C@H]3N(C)C(=O)c2ccc3nc(N)c4cncn4c3c2)cn1` (stereo partly drawn) [Example 21, 4-amino-N-methyl-N-((4S)-1-methyl-7-(2-methylpyrimidin-5-yl)isochroman-4-yl)imid azo[1,5-a]quinoxaline-8-carboxamide], the IC50 in assay [1] (Homo sapiens, HCT-116, 192 h) came out at 14.8 nM; in assay [2] (Homo sapiens, HCT-116, 192 h) it was 2130 nM.

In the case of `CN(C(=O)c1cc2c(cc1F)nc(N)c1cncn12)[C@@H]1COC(C)(C)c2cc(C(F)(F)F)ccc21` (single isomer, unassigned) [Example 135], the IC50 was 9.3 nM in assay [1] (Homo sapiens, HCT-116, 192 h) and 1960 nM in assay [2] (Homo sapiens, HCT-116, 192 h).

Take “(S)-4-amino-N-(6-chl oro-2,3-dihydrobenzo furan-3-yl)-N-methyli midazo[1,5-a]quinoxa line-8-carboxamide [Example 70]”: the IC50 in assay [1] was 54 nM; in assay [2], 3890 nM.

Take `CN(C(=O)c1ccc2nc(N)c3nnnn3c2c1)[C@@H]1COc2cc(C(F)(F)F)ccc21` [Example 58, (S)-4-amino-N-methyl-N-(6-(trifluoromethyl)-2,3-dihydrobenzofuran-3-yl)tetrazolo[1,5-a]quinoxaline-8-carboxamide]: the IC50 in assay [1] (Homo sapiens, HCT-116, 192 h) was greater than 3000 nM; in assay [2] (Homo sapiens, HCT-116, 192 h), greater than 10000 nM.

`CN(C(=O)c1cc2c(cn1)nc(N)c1cncn12)[C@@H]1COc2cc(C(F)(F)F)ncc21` [Example 31, (S)-4-amino-N-methy 1-N-(6-(trifluoromethy 1)-2,3-dihydrofuro[3,2-c]pyridin-3-yl)imidaz o[1,5-a]pyrido[3,4-e]p yrazine-8-carboxamide]: the IC50 in assay [1] (Homo sapiens, HCT-116, 192 h) is 297 nM; in assay [2] (Homo sapiens, HCT-116, 192 h) it was greater than 10000 nM.

As to `CN(C(=O)c1cc2c(cc1F)nc(N)c1cncn12)C1CSc2cc(C(F)(F)F)ccc21` (centres unmarked) [Example 129, 4-amino-7-fluoro-N-methyl-N-(6-(trifluoromethyl)-2,3-dihydrobenzo[b]thiophen-3-yl) imidazo[1,5-a]quinox aline-8-carboxamide], the IC50 in assay [1] (Homo sapiens, HCT-116, 192 h) was found to be 14.5 nM; in assay [2] (Homo sapiens, HCT-116, 192 h) it was 2680 nM.

For the compound `CN(C(=O)c1cc2c(cn1)nc(N)c1cncn12)[C@@H]1CCc2cc(C(F)(F)F)ncc21` [Example 24, (R)-4-amino-N-methy 1-N-(3-(trifluoromethy 1)-6,7-dihydro-5H-cyclopenta[c]pyridin-7-yl)imidazo[1,5-a]pyrido [3,4-e]pyrazine-8-carb oxamide], the IC50 in assay [1] (Homo sapiens, HCT-116, 192 h) was 148 nM; in assay [2] (Homo sapiens, HCT-116, 192 h), greater than 10000 nM.

As for `Nc1nc2ccc(C(=O)N(C3CC3)[C@@H]3COc4cc(C(F)(F)F)ccc43)cc2n2cncc12` (single isomer, unassigned) [Example 84], the IC50 in assay [1] (Homo sapiens, HCT-116, 192 h) was 21.9 nM; in assay [2] (Homo sapiens, HCT-116, 192 h) it was 1470 nM.

Turning to `CN(C(=O)c1ccc2nc(N)c3cncn3c2c1)[C@@H]1COCc2ccc(C(F)(F)F)cc21` (single isomer, unassigned) [Example 94], the IC50 in assay [1] (Homo sapiens, HCT-116, 192 h) came to 80.8 nM; in assay [2] (Homo sapiens, HCT-116, 192 h), 5170 nM.

Regarding “(R)-4-amino-N-methy 1-N-(6-(trifluoromethy 1)-2,3-dihydrofuro[2,3 -b]pyridin-3-yl)imida zo[1,5-a]quinoxaline-8-carboxamide [Example 89]”, the values for the IC50 in assay [1] and in assay [2] were greater than 3000 nM and greater than 10000 nM, respectively.
